# Reference: US20150291565A1, “INDOLE COMPOUNDS AND THEIR USE AS ANTIMICROBIALS” (Memorial Sloan-Kettering Cancer Center, priority 2012, published 2015)
# “And” between values parts separate entries of the source, which are not always exact repeats. Equal entries are not always repeated. Where two headings read alike, the source gives them in different places.
# How the values were obtained:
# [1] = test system: M. smegmatis (mc2155) Beta-Galactosidase (B-gal) reporter gene; assay: HTS screen with Beta-Galactosidase reporter gene in M. smegmatis; assay type: cell-based; conditions: Mycolicibacterium smegmatis
# M. smegmatis Mc2155 = assay: MIC against M. smegmatis Mc2155; assay type: cell-based; conditions: Mycolicibacterium smegmatis
# MRSA = assay: MIC against MRSA; assay type: cell-based; conditions: Staphylococcus aureus
# [2] = test system: S. aureus ATCC 33591 (MRSA); assay: Broth dilution MIC, S. aureus ATCC 33591; assay type: cell-based; conditions: for MIC: Staphylococcus aureus
# [3] = test system: E. faecalis ATCC 29212 (VRE); assay: Broth dilution MIC, E. faecalis ATCC 29212; assay type: cell-based
# E. faecium CT-26 = assay: Broth dilution MIC, E. faecium CT-26; assay type: cell-based; conditions: Enterococcus faecium
# E. coli ECM 1694 = assay: Broth dilution MIC, E. coli ECM 1694; assay type: cell-based; conditions: Escherichia coli
# K. pneumoniae ATCC 13883 = assay: Broth dilution MIC, K. pneumoniae ATCC 13883; assay type: cell-based; conditions: Klebsiella pneumoniae
# K. pneumoniae ATCC 51503 = assay: Broth dilution MIC, K. pneumoniae ATCC 51503; assay type: cell-based; conditions: Klebsiella pneumoniae
# C. albicans ATCC 14053 = assay: Broth dilution MIC, C. albicans ATCC 14053; assay type: cell-based; conditions: Candida albicans, ATCC14053; Table 1; range 64 down to 0.12 μg/ml
# Experimental: In vitro Anti-bacterial & Anti-fungal Activity Assay: All test compounds were prepared as 6.4 mg/ml stock solutions in DMSO and further diluted according to the NCCLS M7-A6 (Page 5) document with sterile water or appropriate diluent. A working stock of 256 μg/ml was used to do 1:2 serial dilutions in 96-well plates. […] The inoculums were prepared by making a direct sterile water suspension of isolated colonies from 18 to 24 hr agar plates for all organisms (Mueller Hinton, Blood Agar or SDA plates). Each bacterial suspension was adjusted to read between 0.09 and 0.11 absorbance at 620 nm. […] These were further diluted 1/100 in appropriate broth for inoculating the 96-well plates. The C. albicans suspension was adjusted to read between 70 and 75% Transmittance at 530 nm and then diluted 1/500 in RPMI+MOPS broth. All aerobic bacterial and fungal plates were incubated for 18 hrs. at 35° C. […] Plates were read using a Beckman Automated Plate Reader at 650 nm. Readings were confirmed by visual examination of plates. (See Table 1, Table 2, Table 3, and Table 4). […] It is important to note that positive results against C. albicans are often indicative of broad spectrum antifungal activity, while negative results are not necessarily conclusory of a lack of activity against other fungus.
# [4] = test system: S. aureus (MRSA) (ATCC33591); assay: Septicemia survival model in neutropenic CD1 mice, MRSA; assay type: in vivo
# E. coli (ATCC 25922) = assay: Septicemia survival model in neutropenic CD1 mice, E. coli; assay type: in vivo
# [5] = test system: Mycobacterium tuberculosis; assay: Time kill curve, liquid culture, M. tuberculosis; assay type: cell-based; conditions: 1.9 micromolar; vs DMSO control; FIG. 1 left-hand graph
# Experimental: Either Mycobacterium tuberculosis or Mycobacterium smegmatis liquid cultures were incubated with SKI-1 (356313) at a concentration of 1.9 micromolar and viable bacterial titer was determined over the time period indicated by culturing serial dilutions on agar media. Control cultures were treated with an equivalent volume of DMSO.
# Mycobacterium smegmatis = assay: Time kill curve, liquid culture, M. smegmatis; assay type: cell-based; conditions: 1.9 micromolar; vs DMSO control; FIG. 1 right-hand graph
# M. tuberculosis = assay: Testing against M. tuberculosis; assay type: cell-based; conditions: recent testing
# [6] = test system: S. pneumoniae (ATCC 6303); assay: Thigh infection model in neutropenic CD1 mice, S. pneumoniae; conditions: 24 hours; for Log reduction: vs vehicle
smiles,measurement,setting,value
c1cc(C2=NCCN2)ccc1Nc1ccc(-c2cc3ccc(C4=NCCN4)cc3[nH]2)cc1 [SKI-1],IC50,"[1]; suffix 250 not explained, read-out: IC50_250",790 nM
same,IC50,"[1]; suffix 251 not explained, read-out: IC50_251",730 nM
same,IC50,"[1]; suffix 381 not explained, read-out: IC50_381",2540 nM
same,IC50,"[1]; suffix 569 not explained, read-out: IC50_569",3670 nM
same,MIC,M. smegmatis Mc2155,0.2 µM
same,MIC,MRSA,9.2 µM
same,MIC,"[2]; Table 1, range 64 down to 0.12 μg/ml, read-out: MIC S. aureus ATCC 33591",0.25 µg/mL
same,MIC,"[2]; Table 2, broth dilution MIC in ug/ml, read-out: MIC S aureus ATCC 33591 MRSA",0.25 µg/mL
same,MIC,"[2]; Table 4, broth dilution MIC according to CLSI standards (NAEJA), read-out: MIC MRSA S. aureus ATCC 33591",0.12 µg/mL
same,MIC S. aureus ATCC 33591,"[2]; Table 3, starting at 4 μg/ml",0.25 µg/mL
same,MIC,"[3]; Enterococcus faecalis, Table 1, range 64 down to 0.12 μg/ml, read-out: MIC E. faecalis ATCC 29212",0.25 µg/mL
same,MIC,"[3]; Enterococcus faecalis, Table 4, broth dilution MIC according to CLSI standards (NAEJA), read-out: MIC VRE E. faecalis ATCC 29212",0.12 µg/mL
same,MIC,"[3]; Table 2, broth dilution MIC in ug/ml, read-out: MIC E faecalis ATCC 29212 VRE",0.25 µg/mL
same,MIC E. faecalis ATCC 29212,"[3]; Table 3, starting at 4 μg/ml",0.25 µg/mL
same,MIC,"E. faecium CT-26; CT26, Table 1, range 64 down to 0.12 μg/ml, read-out: MIC E. faecium CT-26",≤ 0.12 µg/mL
same,MIC,"E. faecium CT-26; CT26, Table 2, broth dilution MIC in ug/ml, read-out: MIC E faecium CT-25",0.06 µg/mL
same,MIC,"E. faecium CT-26; CT26, Table 3, starting at 4 μg/ml, read-out: MIC E. faecium CT-26",0.06 µg/mL
same,MIC,"E. faecium CT-26; CT26, Table 4, broth dilution MIC according to CLSI standards (NAEJA), read-out: MIC E. faecium CT-26",0.015 µg/mL
same,MIC,"E. coli ECM 1694; ECM1694, Table 1, range 64 down to 0.12 μg/ml, read-out: MIC E. coli ECM 1694",0.25 µg/mL
same,MIC,"E. coli ECM 1694; ECM1694, Table 2, broth dilution MIC in ug/ml, read-out: MIC E. coli ECM 1693",0.25 µg/mL
same,MIC,"E. coli ECM 1694; ECM1694, Table 3, starting at 4 μg/ml, read-out: MIC E. coli ECM 1694",0.5 µg/mL
same,MIC,"E. coli ECM 1694; ECM1694, Table 4, broth dilution MIC according to CLSI standards (NAEJA), read-out: MIC E. coli ECM 1694",0.25 µg/mL
same,MIC,"K. pneumoniae ATCC 13883; ATCC13883, Table 1, range 64 down to 0.12 μg/ml, read-out: MIC K. pneumoniae ATCC 13883",1 µg/mL
same,MIC,"K. pneumoniae ATCC 13883; ATCC13883, Table 2, broth dilution MIC in ug/ml, read-out: MIC K pneumonia ATCC 13883",1 µg/mL
same,MIC,"K. pneumoniae ATCC 13883; ATCC13883, Table 4, broth dilution MIC according to CLSI standards (NAEJA), read-out: MIC K. pneumoniae ATCC 13883",0.5 µg/mL
same,MIC,"K. pneumoniae ATCC 51503; ATCC51503, Table 1, range 64 down to 0.12 μg/ml, read-out: MIC K. pneumoniae ATCC 51503",2 µg/mL
same,MIC,"K. pneumoniae ATCC 51503; ATCC51503, Table 2, broth dilution MIC in ug/ml, read-out: MIC K pneumonia ATCC 51503",2 µg/mL
same,MIC,"K. pneumoniae ATCC 51503; ATCC51503, Table 4, broth dilution MIC according to CLSI standards (NAEJA), read-out: MIC K. pneumoniae ATCC 51503",1 µg/mL
same,MIC,C. albicans ATCC 14053,1 µg/mL
same,Day by which all the mice died,[4]; 10 mg/kg,≤ 3 days
same,Percent Survival Day 1,[4]; 10 mg/kg BID IP,100%
same,Percent Survival Day 2,[4]; 10 mg/kg BID IP,100%
same,Percent Survival Day 3,[4]; 10 mg/kg BID IP,0%
same,Percent Survival Day 4,[4]; 10 mg/kg BID IP,0%
same,Percent Survival Day 5,[4]; 10 mg/kg BID IP,0%
same,Percent Survival Day 6,[4]; 10 mg/kg BID IP,0%
same,Percent Survival Day 7,[4]; 10 mg/kg BID IP,0%
same,Day by which all the mice died,[4]; 20 mg/kg,≤ 4 days
same,Percent Survival Day 1,[4]; 20 mg/kg BID IP,100%
same,Percent Survival Day 2,[4]; 20 mg/kg BID IP,100%
same,Percent Survival Day 3,[4]; 20 mg/kg BID IP,80%
same,Percent Survival Day 4,[4]; 20 mg/kg BID IP,0%
same,Percent Survival Day 5,[4]; 20 mg/kg BID IP,0%
same,Percent Survival Day 6,[4]; 20 mg/kg BID IP,0%
same,Percent Survival Day 7,[4]; 20 mg/kg BID IP,0%
same,Day by which all the mice died,E. coli (ATCC 25922); 10 mg/kg,≤ 3 days
same,Percent Survival Day 1,E. coli (ATCC 25922); 10 mg/kg BID IP,100%
same,Percent Survival Day 2,E. coli (ATCC 25922); 10 mg/kg BID IP,60%
same,Percent Survival Day 3,E. coli (ATCC 25922); 10 mg/kg BID IP,0%
same,Percent Survival Day 4,E. coli (ATCC 25922); 10 mg/kg BID IP,0%
same,Percent Survival Day 5,E. coli (ATCC 25922); 10 mg/kg BID IP,0%
same,Percent Survival Day 6,E. coli (ATCC 25922); 10 mg/kg BID IP,0%
same,Percent Survival Day 7,E. coli (ATCC 25922); 10 mg/kg BID IP,0%
same,Day by which all the mice died,E. coli (ATCC 25922); 20 mg/kg,≤ 4 days
same,Percent Survival Day 1,E. coli (ATCC 25922); 20 mg/kg BID IP,100%
same,Percent Survival Day 2,E. coli (ATCC 25922); 20 mg/kg BID IP,80%
same,Percent Survival Day 3,E. coli (ATCC 25922); 20 mg/kg BID IP,60%
same,Percent Survival Day 4,E. coli (ATCC 25922); 20 mg/kg BID IP,0%
same,Percent Survival Day 5,E. coli (ATCC 25922); 20 mg/kg BID IP,0%
same,Percent Survival Day 6,E. coli (ATCC 25922); 20 mg/kg BID IP,0%
same,Percent Survival Day 7,E. coli (ATCC 25922); 20 mg/kg BID IP,0%
same,Viable bacterial titer over time (time kill curve),[5],bactericidal
same,Viable bacterial titer over time (time kill curve),Mycobacterium smegmatis,bactericidal
same,Activity against M. tuberculosis,M. tuberculosis,comparable to that observed for M. smegmatis
same,Mean bacterial tissue burden (log10/thigh),[6]; 10 mg/kg BID IP,6.7143 log10/thigh
same,Log reduction,"[6]; 10 mg/kg BID IP, listed as 356313, 10 mg/kg",2.40 Log and 2.3984 Log
same,Mean bacterial tissue burden (log10/thigh),[6]; 20 mg/kg BID IP,5.6260 log10/thigh
same,Log reduction,"[6]; 20 mg/kg BID IP, listed as 356313, 20 mg/kg",3.49 Log and 3.4867 Log
